As usually defined, the IC50 is the concentration that gives 50% inhibition.

The target of this experiment is T1, UCHL1 (Homo sapiens, UniProt P09936).
T1 construct: made in house; host or cells: HEK293T
T1 sequence (P09936 1-223): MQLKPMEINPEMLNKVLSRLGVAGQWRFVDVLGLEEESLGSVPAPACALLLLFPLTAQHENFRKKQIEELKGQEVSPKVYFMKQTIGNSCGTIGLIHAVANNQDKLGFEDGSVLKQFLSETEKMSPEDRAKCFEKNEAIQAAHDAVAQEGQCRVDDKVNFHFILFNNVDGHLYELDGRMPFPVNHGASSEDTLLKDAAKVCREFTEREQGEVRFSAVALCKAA
As to the kind of experiment: UCHL1 biochemical IC50 assay (fluorescence polarisation). To be noted: 30 min enzyme/compound pre-incubation at room temp, read after 2 hr incubation, read-out: Activity range (UCHL1 biochemical IC50 assay). The method in brief: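 Fluorescence polarisation (ex 540/em 590 nm) of 50 nM TAMRA-labelled ubiquitin–peptide isopeptide substrate was read at time zero and after 2 h at room temperature. Compounds (100–0.03 μM final, in duplicate) were given 30 min preincubation with N-FLAG UCHL1 from HEK293T cells in pH 7.5 Tris buffer.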
(In fluorescence polarisation assays a small probe gives low polarisation when free and higher when bound to something large.)

For the compound `N#CN1CC(C(=O)Nc2ncc(-c3ccccc3)s2)C2CC21` (centres unmarked) [Example 280, 2-cyano-N-(5-phenylthiazol-2-yl)-2-azabicyclo[3.1.0]hexane-4-carboxamide], the half-maximal inhibitory concentration (IC50) is 1000 to 10000 nM.
`N#CN1C[C@@H](C(F)(F)F)[C@H](C(=O)Nc2ncc(-c3ccccc3)s2)C1` [Example 281, (3S, 4S)-1-cyano-N-(5-phenylthiazol-2-yl)-4-(trifluoromethyl)pyrrolidine-3-carboxamide]: the IC50 was less than 1000 nM.
For the compound `COC1(C(=O)Nc2ncc(-c3ccccc3)s2)CCN(C#N)C1` (centres unmarked) [Example 284, 1-cyano-3-methoxy-N-(5-phenylthiazol-2-yl)pyrrolidine-3-carboxamide], the IC50 is less than 1000 nM.
On to `Cc1noc(C)c1-c1cnc2nc(NC(=O)[C@H]3CCN(C#N)C3)sc2c1` [Example 285, (S)-1-cyano-N-(6-(3,5-dimethylisoxazol-4-yl)thiazolo[4,5-b]pyridin-2-yl)pyrrolidine-3-carboxamide], for which the IC50 fell in the range of 1000 to 10000 nM.
Turning to `Cc1noc(C)c1-c1ccc2nc(NC(=O)[C@H]3CCN(C#N)C3)sc2n1` [Example 286, (S)-1-cyano-N-(5-(3,5-dimethylisoxazol-4-yl)thiazolo[5,4-b]pyridin-2-yl)pyrrolidine-3-carboxamide], the IC50 is less than 1000 nM.
The same measure for `Cc1cccc(C)c1-c1ccc2nc(NC(=O)[C@H]3CCN(C#N)C3)sc2c1` [Example 287, (S)-1-cyano-N-(6-(2,6-dimethylphenyl)benzo[d]thiazol-2-yl)pyrrolidine-3-carboxamide]: less than 1000 nM; for `Cc1nn(C)cc1-c1ccc2nc(NC(=O)[C@H]3CCN(C#N)C3)sc2c1` [Example 288, (S)-1-cyano-N-(6-(1,3-dimethyl-1H-pyrazol-4-yl)benzo[d]thiazol-2-yl)pyrrolidine-3-carboxamide]: less than 1000 nM.
`N#CN1CC[C@H](C(=O)Nc2cc3cc(-c4cn[nH]c4C(F)(F)F)ccc3cn2)C1` [Example 289, (S)-1-cyano-N-(6-(5-(trifluoromethyl)-1H-pyrazol-4-yl)isoquinolin-3-yl)pyrrolidine-3-carboxamide]: the IC50 is less than 1000 nM.
As to `Cc1oncc1-c1cccc(-c2ccnc(NC(=O)[C@H]3CCN(C#N)C3)c2)c1` [Example 290, (S)-1-cyano-N-(4-(3-(5-methylisoxazol-4-yl)phenyl)pyridin-2-yl)pyrrolidine-3-carboxamide], the concentration for half-maximal inhibition (IC50) is less than 1000 nM.
The value for `N#CN1CC[C@H](C(=O)Nc2cc(-c3cn[nH]c3)ccn2)C1` [Example 291, (S)-N-(4-(1H-pyrazol-4-yl)pyridin-2-yl)-1-cyanopyrrolidine-3-carboxamide] was 1000 to 10000 nM.
In the case of `N#CN1CC[C@H](C(=O)Nc2nc3ccc(-c4cn[nH]c4)cc3s2)C1` [Example 292, (S)-N-(6-(1H-pyrazol-4-yl)benzo[d]thiazol-2-yl)-1-cyanopyrrolidine-3-carboxamide], the concentration for half-maximal inhibition (IC50) was 1000 to 10000 nM.
As to `N#CN1CC[C@H](C(=O)Nc2cn(-c3ccc(-c4cn[nH]c4)cc3)cn2)C1` [Example 294, (S)-N-(1-(4-(1H-pyrazol-4-yl)phenyl)-1H-imidazol-4-yl)-1-cyanopyrrolidine-3-carboxamide], the IC50 is less than 1000 nM.
Regarding `Cc1[nH]ncc1-c1ccnc(NC(=O)[C@H]2CCN(C#N)C2)c1` [Example 295, (S)-1-cyano-N-(4-(5-methyl-1H-pyrazol-4-yl)pyridin-2-yl)pyrrolidine-3-carboxamide], the half-inhibitory concentration (IC50) lay within 1000 to 10000 nM.
As to `Cc1noc(C)c1-c1cc2sc(NC(=O)[C@H]3CCN(C#N)C3)nc2cn1` [Example 296, (S)-1-cyano-N-(6-(3,5-dimethylisoxazol-4-yl)thiazolo[4,5-c]pyridin-2-yl)pyrrolidine-3-carboxamide], the IC50 lay within 10000 to 30000 nM.
For the compound `Cc1oncc1-c1cc(-c2ccnc(NC(=O)[C@H]3CCN(C#N)C3)c2)ccn1` [Example 297, (S)-1-cyano-N-(2′-(5-methylisoxazol-4-yl)-[4-4′-bipyridin]-2-yl)pyrrolidine-3-carboxamide], the IC50 was less than 1000 nM.
In the case of `Cc1nn(C)c2ccc(-n3cnc(NC(=O)[C@H]4CCN(C#N)C4)c3)cc12` [Example 298, (S)-1-cyano-N-(1-(1,3-dimethyl-1H-indazol-5-yl)-1H-imidazol-4-yl)pyrrolidine-3-carboxamide], the concentration for half-maximal inhibition (IC50) was less than 1000 nM.
Take `Cc1n[nH]c2cc(-n3cnc(NC(=O)[C@H]4CCN(C#N)C4)c3)ccc12` [Example 299, (S)-1-cyano-N-(1-(3-methyl-1H-indazol-6-yl)-1H-imidazol-4-yl)pyrrolidine-3-carboxamide]: the IC50 is less than 1000 nM.
For the compound `N#CN1CC[C@H](C(=O)Nc2cn(-c3ccc4[nH]ncc4c3)cn2)C1` [Example 300, (S)-N-(1-(1H-indazol-5-yl)-1H-imidazol-4-yl)-1-cyanopyrrolidine-3-carboxamide], the IC50 is less than 1000 nM.
With `N#CN1CC[C@H](C(=O)Nc2cn(-c3ccc4cn[nH]c4c3)cn2)C1` [Example 301, (S)-N-(1-(1H-indazol-6-yl)-1H-imidazol-4-yl)-1-cyanopyrrolidine-3-carboxamide], the 50% inhibitory concentration (IC50) is less than 1000 nM.
The value for `COc1cc(-n2cnc(NC(=O)[C@H]3CCN(C#N)C3)c2)ccc1F` [Example 302, (S)-1-cyano-N-(1-(4-fluoro-3-methoxyphenyl)-1H-imidazol-4-yl)pyrrolidine-3-carboxamide] was less than 1000 nM; that for `N#CN1CC[C@H](C(=O)Nc2cn(-c3cccc4[nH]ncc34)cn2)C1` [Example 303, (S)-N-(1-(1H-indazol-4-yl)-1H-imidazol-4-yl)-1-cyanopyrrolidine-3-carboxamide] was less than 1000 nM.
The same measure for `N#Cc1ccc(-n2cnc(NC(=O)[C@H]3CCN(C#N)C3)c2)cc1C1CC1` [Example 304, (S)-1-cyano-N-(1-(4-cyano-3-cyclopropylphenyl)-1H-imidazol-4-yl)pyrrolidine-3-carboxamide]: less than 1000 nM; for `N#CN1CC[C@H](C(=O)Nc2cn(-c3ccnc4ccccc34)cn2)C1` [Example 305, (S)-1-cyano-N-(1-(quinolin-4-yl)-1H-imidazol-4-yl)pyrrolidine-3-carboxamide]: less than 1000 nM; for `N#Cc1ccc(C2CC2)cc1-n1cnc(NC(=O)[C@H]2CCN(C#N)C2)c1` [Example 306, (S)-1-cyano-N-(1-(2-cyano-5-cyclopropylphenyl)-1H-imidazol-4-yl)pyrrolidine-3-carboxamide]: less than 1000 nM.
For the compound `COc1cc(-n2cnc(NC(=O)[C@H]3CCN(C#N)C3)c2)ccc1C#N` [Example 307, (S)-1-cyano-N-(1-(4-cyano-3-methoxyphenyl)-1H-imidazol-4-yl)pyrrolidine-3-carboxamide], the IC50 was less than 1000 nM.
For the compound `Cc1cc(-n2cnc(NC(=O)[C@H]3CCN(C#N)C3)c2)ccc1C#N` [Example 308, (S)-1-cyano-N--(1-(4-cyano-3-methylphenyl)-1H-imidazol-4-yl)pyrrolidine-3-carboxamide], the IC50 is less than 1000 nM.
As for `N#Cc1ccc(-n2cnc(NC(=O)[C@H]3CCN(C#N)C3)c2)cc1C(F)(F)F` [Example 309, (S)-1-cyano-N-(1-(4-cyano-3-(trifluoromethyl)phenyl)-1H-imidazol-4-yl)pyrrolidine-3-carboxamide], the half-maximal inhibitory concentration (IC50) is less than 1000 nM.
Take `N#Cc1ccc(-n2cnc(NC(=O)[C@H]3CCN(C#N)C3)c2)cc1OC(F)(F)F` [Example 310, (S)-1-cyano-N-(1-(4-cyano-3-(trifluoromethoxy)phenyl)-1H-imidazol-4-yl)pyrrolidine-3-carboxamide]: the IC50 was less than 1000 nM.
As to “(S)-1-cyano-N-(isoquinolin-yl)pyrrolidine-3-carboxamide [Example 58]”, the IC50 lay in the range of 1000 to 10000 nM.

Values taken from US11472798B2 (Mission Therapeutics Limited, priority 2014, dated 2022).
